# Results from US12193441B2, “Antimicrobial mixtures comprising at least one hydroxyphenone derivative” (SYMRISE AG, priority 2018, dated 2025).
# Tested on: A. brasiliensis
# Experiment: Minimum Inhibitory Concentration (MIC) and Kull synergy index against A. brasiliensis
# Type: cell-based
# Design: unit not given here
# Conditions: not given
# Text: To calculate the synergism between compounds of formula (I) and other antimicrobial actives, the Kull equation^1 2 was used SI=(Cmixture×PA)/CA+(Cmixture×PB)/CB (I) • where • SI is the Synergy Index according to Kull^1), 2) • CA is the […] for substance A • CB is the cell count for substance B • Cmixture is the cell count for the mixture of substances A and B • PA is the proportion of the substance A in the mixture • PB is the proportion of the substance B in the mixture. ^1 Kull, F. C., Eismann, P. C., Sylvestrowicz, H. D., and R. L. Mayer (1961). Mixtures of Quaternary Ammonium Compounds and Long-chain Fatty Acids as Antifungal Agents. Applied Microbiology 9, 538-541.^2 Steinberg, D. C. (2000). Measuring Synergy. Cosmetics & Toiletries 115 (11), 59-62.
# Antimicrobil activity was evaluated by determining the Minimum Inhibitory Concentration (MIC) representing the lowest concentration of a chemical which prevents visible growth of a bacterium.
# The MIC values were determined by preparing solutions of the chemical in vitro at increasing concentrations, incubating the solutions with the separate batches of cultured bacteria, and measuring the results using agar dilution or broth microdilution. Results have been graded into susceptible (often called sensitive), intermediate, or resistant to a particular antibiotic by using a cutoff point. Cut off points are agreed upon values, published in guidelines of a reference body, such as the U.S. Clinical and Laboratory Standards Institute (CLSI), the British Society for Antimicrobial Chemotherapy (BSAC) or the European Committee on Antimicrobial Susceptibility Testing (EUCAST).
row,Molecule,MIC (Comparison: MIC values for the actives taken alone)
1,C/C=C/C=C/C(=O)[O-].[K+] [Potassium sorbate],5000

# Same assay, conditions: active taken alone; A. brasiliensis
row,Molecule,MIC (Comparison: MIC values for the actives taken alone)
1,"OCCCO [1,3-Propanediol]",200.000
2,CC(=O)c1ccc(O)cc1 [4-Hydroxyacetophenone],2500
3,Cc1cc(O)ccc1C(C)C [4-Isopropyl-3-methylphenol],250
4,OCc1ccccc1 [Benzyl alcohol],5000
5,"O=[N+]([O-])C(Br)(CO)CO [Bronopol, 2-bromo-2-nitro-1,3-propanediol]",2000
6,CCCCCCCC(=O)NCC(=O)O [Capryloyl glycine],60.000
7,"CC(C)(C)C(=O)C(Oc1ccc(Cl)cc1)n1ccnc1 (stereo not shown) [Climbazol, Crinipan, Climbazol]",64
8,CCCCCCCCCCCC(=O)N[C@@H](CCCN=C(N)N)C(=O)OCC.Cl [Ethyl lauroyl arginate HCl],2.000
9,"O=C(O)CN(CCN(CC(=O)O)CC(=O)O)CC(=O)O [Ethylene diamine tetra acetate (EDTA), Ethylene diamine tetra acetate]",40.000
10,CCCCCCCCCC(=O)OCC(O)CO (stereo not shown) [Glyceryl caprate],2.000
11,"CCCCNC(=O)OCC#CI [IPBC, 3-Iodo-2-propynylbutylcarbamate, 3-Iodo-2-propynylbutylcarbamate]",1
12,"Cc1cc(CC(C)CC(C)(C)C)n(O)c(=O)c1.NCCO (stereo not shown) [Piroctone oleamine, Octopyrox, 1-hydroxy-4-methyl-6-(2,4,4-trimethylpentyl)-2-(1H)-pyridinone monoethanolamine salt]",64
13,O=C([O-])c1ccccc1.[Na+] [Sodium benzoate],10.000
14,"Oc1cc(Cl)ccc1Oc1ccc(Cl)cc1Cl [Triclosan, 2,4,4′-trichloro-2′-hydroxy-diphenyl ether]",32
15,C=CCCCCCCCCC(=O)NCC(=O)O [Undecenoyl glycin],5.000
16,"C=CCCCCCCCCC(=O)O [Undecylenic acid, Undec-10-enoic acid, Undec-10-enoic acid]",500
17,Glceryl caprylate,2.000
18,Sorbitan caprylate,4000

# Tested on: mold growth on moist alfalfa hay
# Experiment: not given
# Conditions: preservation of moist alfalfa hay; cited from earlier work
row,Molecule,prevention of mold growth
1,CC(=O)c1ccc(O)cc1 [4-Hydroxyacetophenone],not prevent mold growth

# Tested on: not given
# Experiment: not given
# Conditions: chemical in vitro assay; constituent of Tagetes mendocina; cited from earlier work
row,Molecule,antioxidant activity
1,CC(=O)c1ccc(O)cc1 [4-Hydroxyacetophenone],one of the active constituents

# Tested on: subcutaneous inflammation
# Experiment: not given
# Conditions: administered intraperitoneally; cited from earlier work
row,Molecule,reduction of subcutaneous inflammation
1,CC(=O)c1ccc(O)cc1 [4-Hydroxyacetophenone],one of the active compounds reducing subcutaneous inflammation
